Laboratory results reported in patent US9249086B2, “Carboxylic acid ALA esters” (Photocure ASA, priority 2012, dated 2016).
Counter-ions that a name gives are not always drawn.

How the values were obtained:
[1] = system: S. aureus strain DSM 20231 (ATCC 12600); assay: Dark toxicity in bacteria; type: cell-based, Staphylococcus aureus; details: 0.001, 0.1, 1 and 10 mM, plate not illuminated
Description: S. aureus strain DSM 20231 (ATCC 12600). The bacterial strain was grown for 24 hours on heart infusion agar (Difco) at 35-37° C. prior to carrying out the experiment and re-suspended in 20 mM PIPES, pH 7.2-7.4 at a concentration corresponding to a McFarland 0.5 standard (approximately 1-5×10^8 CFU/mL). In order to ensure viable cell cultures and to check the inoculum size and purity, bacterial stocks were made immediately prior to experimentation and the CFU/mL determined in a standard colony assay.
“Dark toxicity”, i.e. the toxic effect of the compounds in the absence of light (and therefore unrelated to PDT effects), can include bacteria cell death and therefore can interfere with the accurate measurement of the PDT effect, which also results in bacterial cell death. Dark toxicity can be measured by determining the toxicity of each compound under the same experimental conditions, but in the absence of light, thereby avoiding any PDT effect. The use of the compounds of the invention under conditions that produce low dark toxicity is advantageous because dark toxicity effects could also include harming or killing non-target cells and interfering with the PDT treatment itself. […]
Dark toxicity was determined as described in the paragraph “PDT-treatment” below, except that the plate was not illuminated. […]

[2] = system: Salmonella typhimurium, TA98 and TA100; assay: Ames test (mutagenic and photomutagenic potential); type: cell-based; details: absence and presence of S-9, absence and presence of visible light
Source text: The Ames test (see B. N. Ames et al, Methods for detecting carcinogens and mutagens with the Salmonella/mammalian-microsome mutagenicity test. Mutation Research 31, 347-364, 1975) is a standard test method approved by the regulatory authorities to detect an ability of a test chemical compound to induce mutation in certain bacterial strains. If a test chemical compound induces such mutations, it cannot be used in a pharmaceutical compound for use in humans.
The objective of this study was to evaluate the mutagenic potential and photomutagenic potential of compound 1c, carboxymethyl 5-amino-4-oxopentanoate hydrobromide (prepared according to Example 1c) by examining its ability to revert two histidine-requiring strains of Salmonella typhimurium, TA98 and TA100, in the absence and presence of a rat liver metabolising system (S-9) and also in the absence and presence of visible light. The latter was assessed since compound 1c is taken up by the bacteria cells and converted into a photosensitiser, which, upon illumination of said cells, might induce mutagenic products.

back skin of minipigs = assay: In vivo skin fluorescence study in minipigs (FluoDerm); details: 15% cream in Unguentum Merck, 0.5 g per site, 1.5, 5 and 12 hours after application, FIG. 1
Description: Compound 1c (carboxymethyl 5-amino-4-oxopentanoate hydrobromide, prepared according to Example 1c) was formulated as a cream in Unguentum Merck (15%, 150 mg/g; 0.56 mmol).
The cream was administered to the back skin of minipigs. Prior to application of the cream, the surrounding skin was cleaned with sterile water and gauze, if necessary. 0.5 g cream was applied to each test site (50 mm in diameter) resulting in a homogenous cream layer and then covered with a dressing (Tegaderm®). The gauze Vet-Flex® was used to keep the dressing in place.
Skin fluorescence at 630 nm was assessed prior to cream application and at 1.5, 5 and 12 hours after cream application using the FluoDerm instrument (DiaMedico ApS, Denmark) according to the manufacturers instructions. The FluoDerm instrument is a hand-held device for objective real-time in vivo measuring of average fluorescence over a circular field with diameter 40 mm. Measurements were electronically corrected for the actual ambient light.

[3] = system: sebaceous glands and epidermis of minipig skin; assay: Minipig skin biopsies, fluorescence microscopy; type: in vivo, minipigs; details: minipig skin biopsy sections; 15% cream
Description: The cream was administered as described above. At t=0 (i.e. prior to administration of the cream), 1.5, 5 and 12 hours, biopsy samples were taken using a 10 mm biopsy punch (AcuPunch 10 mm, Acuderm, USA). The samples were taken and handled in a minimally illuminated room. Each sample was trimmed free of any subcutaneous fatty tissue and thereafter cut in half. Each sample was then snap frozen in liquid nitrogen, in an aluminium foil bag or similar, and transferred to a −80° C. freezer.
The biopsy samples were sectioned at 10 μm and again care was taken to minimize the surrounding light. When sebaceous glands and epidermis could be identified, a series of 3 consecutive sections was prepared from each sample. The sections were examined within 15 minutes in a Leica DMRXE microscope equipped for both ordinary light microscopy and fluorescence microscopy. Epidermis and sebaceous glands were localized using conventional light microscopy. This was carried out within 5 seconds and then the light source was changed to a mercury lamp/fluorescence with filter set; excitation filter 390-447 nm, beam splitter 455 nm and an emission filter >600 nm. The sections were immediately photographed. Without moving the specimen the light source was changed back to conventional light microscopy and the sections were photographed in exactly the same position as for the fluorescence microscopy. As well as the epidermis and sebaceous glands, the dermis was analysed and if fluorescence was found also photographed. To further investigate localisation of all analyzed structures, the sections were stained with hematoxylin/eosin.
Image analysis was performed using the software program, Image J (version Fiji-win32.exe). With this program, average fluorescence intensity per pixel was measured from the saved images.

[4] = system: skin of healthy nude mice; assay: In vivo skin fluorescence study in healthy nude mice; details: cream in Unguentum Merck, equimolar (16-19%), about 100 μl on back, 6 hours in the dark, excitation 365 and 405 nm, mean of 5 mice
Description: A study was carried out to assess the potential of the compounds of the invention as precursors for photosensitisers for skin application. As such, the compounds of the invention need to be able to penetrate the skin, to be taken up by the cells in the skin and to be converted to photosensitisers. The result of this process can be visualized by exposing the skin to light which excites the photosensitiser molecules and to determine the amount of energy which is released in the form of fluorescence when the excited photosensitiser molecules relax to an energetically lower state.
Compounds 2, 4 and 7 above were formulated as creams in Unguentum Merck. The compounds were tested in equimolar amounts:
3 groups of mice (5 mice/group, each mouse of one group receiving the same cream formulation) were included in the experiment. About 100 μl of cream formulation was applied onto the back of one mouse. The mice were kept in the dark for 6 hours prior to skin fluorescence measurement to avoid photobleaching. For assessment of skin fluorescence, a fluorescence camera (Medeikonos PDD/PDT, Medeikonos AB, Gothenburg, Sweden) was used and images of the back of each mouse were taken. Excitation was carried out at wavelengths of 365 and 405 nm and 2 s illumination time. Each image was calibrated to a fluorescence standard (Uranyl Standard, J&M, Analytische Mess- and Regeltechnik GmbH, Hamburg, Germany) and adjusted for background fluorescence. The mean amount of skin fluorescence in each image was calculated by means of image analyzer-software (MatLab 7.2.0.232, Math-Works, Natick, Mass., USA) and the mean amount of skin fluorescence for each group of mice (5 mice/compound) was calculated.

[5] = system: Rat bladder cells (AY-27); assay: PpIX measurements in rat bladder cells; type: cell-based; details: AY-27 cells; for PpIX Mean ± SD: 2 hours incubation
Description: Rat bladder cells (AY-27) were grown in the culture medium (RPMI 1640 supplemented with 9% fetal calf serum 1% L-glutamin (200 mM) and 1% penicillin (10 000 UI), streptomycin (10 000 μg·mL^−1). Exponentially growing cells (AY-27) were incubated for 2 hours with freshly prepared solutions of 0.8 mM HAL (which is a tenth of the concentration which is used for bladder cancer […]). Control cells received serum-free medium without any test or reference compounds. After the incubation, the solutions or the medium was discarded and the cells were rinsed 2 times with ice-cooled PBS. PpIX was extracted from cells using an ice-cold lysis extraction mixture, consisting of ethanol/DMSO/acetic acid (80/20/1, v/v/v). The cell lysate was centrifuged (400 g, 10 min, 2° C.), the pellet was grinded and the suspension was sonicated for 15 min before being centrifuged. The fluorescence signal of PpIX was measured with a Perkin-Elmer LS 55 spectrometer (Perkin-Elmer, Beaconsfield, UK) and expressed as a function of the protein content. The fluorescence intensity at 635 nm in each sample was reported on a calibration curve established with PpIX (Sigma-Aldrich, France) diluted in extraction mixture as described above. The PpIX concentration was expressed relative to the protein content. Briefly, a lysis buffer mixture (1 mM EDTA, 1% Triton X-100 and 10 mM Tris-HCl; pH 7.4) was added to frozen cell dishes together with 500 mM PMSF (anti-protease) solution in DMSO. Lysates were kept on ice for 30 minutes and centrifuged at 4° C. for 20 minutes at 15 000 g. The protein content was then measured against a BSA calibration curve by a Biorad DC protein assay kit (Bio-Rad, France) based on a method developed by Lowry.

[6] = system: Rat bladder cells (AY-27); assay: Cytotoxicity in rat bladder cells (MTT test); type: cell-based; details: AY-27 cells; for Cytotoxicity: 2 hours, MTT test
Description: All experiments were performed in 4-5 replicates under subdued light. For concentrations of compounds 1 mM, the cytotoxicity was assessed with MTT test. Exponentially growing cells were incubated with freshly prepared solution or medium as described above for 2 hours in 96-well plates. After the incubation, the solutions or the medium was discarded and the cells were washed twice with PBS. Then 50 μl of MTT (2.5 mg·ml^−1) was added to 150 μl of RPMI serum-free medium per well and incubated for 3 hours. Absorbance was measured by dissolving formazan crystals with 50 μl of DMSO. The absorbance was normalized to that of control cells.

| SMILES | Dark toxicity [1] | Induction of mutation or photomutation [2] | Skin fluorescence at 630 nm over time (back skin of minipigs) | Selectivity for sebaceous glands [3] | Time after cream application at which fluorescence was also seen in the epidermis [3] | Time after cream application at which fluorescence was seen in the sebaceous glands [3] | Skin fluorescence [4] | PpIX Mean ± SD ([5]; 1 mM) | PpIX Mean ± SD ([5]; 5 mM) | PpIX Mean ± SD ([5]; 15 mM) | PpIX concentration compared to HAL (0.8 mM) ([5]; compound at 1 mM) | PpIX concentration compared to HAL (0.8 mM) ([5]; compound at 5 mM) | Cytotoxicity ([6]; 1 mM) | Cytotoxicity ([6]; 5 mM) | Cytotoxicity ([6]; 15 mM) | Cytotoxicity at higher concentration ([6]; concentration higher than 5 mM) |
| --- | --- | --- | --- | --- | --- | --- | --- | --- | --- | --- | --- | --- | --- | --- | --- | --- |
| NCC(=O)CCC(=O)OCC(=O)O [Compound 1c, carboxymethyl 5-amino-4-oxopentanoate hydrobromide] | No dark toxicity was observed | did not induce mutation or photomutation | skin fluorescence increased with time | shows a selectivity for sebaceous glands | 5 h | 1.5 h |  |  |  |  |  |  |  |  |  |  |
| NCC(=O)CCC(=O)OCCC(=O)O [Compound 4, 2-carboxyethyl 5-amino-4-oxopentanoate hydrobromide] | No dark toxicity was observed |  |  |  |  |  | 8473 a.u. | 45 ± 8 pmoles/mg protein | 141 ± 24 pmoles/mg protein | 180 ± 94 pmoles/mg protein | significantly lower compared to HAL | About half of the PpIX concentration of HAL | 3 % of control | 14 % of control | 39 % of control | cytotoxicity was induced |
